According to BindingDB's records for doi:10.1046/j.1460-9568.2003.02744.x (University of Innsbruck, 2003):

How the values were obtained:
[1] = target: Kappa-type opioid receptor (Rattus norvegicus, UniProt P34975)
[2] = target: Delta-type opioid receptor (Rattus norvegicus, UniProt P33533)
Mu-type opioid receptor = Mu-type opioid receptor (Rattus norvegicus, UniProt P33535)
Mu-type opioid receptor, sequence (P33535 whole entry): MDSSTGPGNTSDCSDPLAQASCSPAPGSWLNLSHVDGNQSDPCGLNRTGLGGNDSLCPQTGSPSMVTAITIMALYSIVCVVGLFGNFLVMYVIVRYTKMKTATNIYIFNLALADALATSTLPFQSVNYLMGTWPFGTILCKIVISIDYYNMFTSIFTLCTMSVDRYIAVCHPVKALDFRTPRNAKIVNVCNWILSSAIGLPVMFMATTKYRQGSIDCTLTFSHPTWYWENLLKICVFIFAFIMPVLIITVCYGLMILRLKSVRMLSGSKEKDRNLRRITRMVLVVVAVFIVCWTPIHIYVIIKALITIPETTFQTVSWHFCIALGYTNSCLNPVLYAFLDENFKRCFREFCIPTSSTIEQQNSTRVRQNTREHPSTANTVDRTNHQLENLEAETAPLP

Delta-type opioid receptor, sequence (P33533 whole entry): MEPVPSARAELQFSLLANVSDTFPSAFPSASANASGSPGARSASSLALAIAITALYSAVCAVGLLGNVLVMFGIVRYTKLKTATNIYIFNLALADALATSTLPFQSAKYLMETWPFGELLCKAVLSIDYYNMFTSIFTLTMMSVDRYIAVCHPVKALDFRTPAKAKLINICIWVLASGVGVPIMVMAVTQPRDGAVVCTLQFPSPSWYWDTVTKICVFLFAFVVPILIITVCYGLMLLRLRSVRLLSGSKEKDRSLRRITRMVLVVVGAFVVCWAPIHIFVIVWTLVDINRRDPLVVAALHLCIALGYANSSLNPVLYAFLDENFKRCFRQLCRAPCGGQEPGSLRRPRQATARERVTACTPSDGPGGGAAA
Kappa-type opioid receptor, sequence (P34975 whole entry): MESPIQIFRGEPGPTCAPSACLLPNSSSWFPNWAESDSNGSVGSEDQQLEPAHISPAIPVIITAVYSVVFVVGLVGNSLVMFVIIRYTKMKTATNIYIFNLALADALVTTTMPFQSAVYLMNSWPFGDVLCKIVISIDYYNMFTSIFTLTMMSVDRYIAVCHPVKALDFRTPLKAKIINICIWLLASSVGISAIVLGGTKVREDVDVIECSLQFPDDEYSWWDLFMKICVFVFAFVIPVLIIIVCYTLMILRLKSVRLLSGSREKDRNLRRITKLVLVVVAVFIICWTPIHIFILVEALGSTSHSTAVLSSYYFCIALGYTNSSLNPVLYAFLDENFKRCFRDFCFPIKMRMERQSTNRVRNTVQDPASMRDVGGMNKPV

`Oc1ccc2c3c1OC1c4[nH]c5c(c4CC4(O)CN(CCC314)C(C1CC1)C2)CC1(O)CN2CCC13c1c(ccc(O)c1OC53)CC2C1CC1` (stereo unspecified) [CAS_105618-26-6] gave a Ki [1] of 38.8 nM.
`CCO[C@@]12Cc3c([nH]c4ccccc34)[C@]3(C)Oc4c(O)ccc5c4[C@@]31CCN(CC1CC1)C2C5` [HS-378] gave a Ki [2] of 528 nM.
`COC12CCC(=O)C3(C)Oc4c(O)ccc5c4C31CCN(C)C2C5` (stereo unspecified) [NSC_125489] was tested, and the Ki (Mu-type opioid receptor) was 0.48 nM and the Ki [1] was 25.2 nM.
Work on `COc1cccc2c1C13CCN(CC4CC4)C(C2)C1(OC)CCC(=O)C3` (stereo unspecified) [NSC_3081671] yielded a Ki (Mu-type opioid receptor) of 15.1 nM.
With `CC(C)[C@H](NC(=O)[C@H](CCC(=O)O)NC(=O)[C@H](Cc1ccccc1)NC(=O)[C@@H](C)NC(=O)[C@@H](N)Cc1ccc(O)cc1)C(=O)N[C@H](C(=O)NCC(N)=O)C(C)C` [Tyr-D-Ala-Phe-Glu-Val-Val-GlyNH2] the Ki [2] was 48.3 nM.
